Results published in PubChem BioAssay (NCI).
Where “and” joins values, the source holds several entries; their conditions need not be identical. Equal values may be shown once.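 Interpolation was linear, between the two tested concentrations surrounding the appropriate level; five concentrations were tested over 48 hours in 96-well plates. Abbreviation: GI50, concentration required for 50% inhibition of growth. TGI: total growth inhibition.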

Key:
Test in all cases: DTP human tumour cell line panel, 48 h
786-0 renal = system: 786-0 renal
ACHN renal = system: ACHN renal
CCRF-CEM leukemia = system: CCRF-CEM leukemia
NCI-H226 lung = system: NCI-H226 lung
OVCAR-3 ovarian = system: OVCAR-3 ovarian
OVCAR-5 ovarian = system: OVCAR-5 ovarian
RPMI-8226 leukemia = system: RPMI-8226 leukemia
SW-620 colon = system: SW-620 colon
UACC-62 melanoma = system: UACC-62 melanoma
T-47D breast = system: T-47D breast

O=c1/c(=C/c2ccc3c(c2)OCO3)sc2nnc(Cc3ccccc3)n12
TGI (786-0 renal): > 100 µM
TGI (ACHN renal): > 100 µM
TGI (CCRF-CEM leukemia): > 100 µM
TGI (NCI-H226 lung): > 100 µM
TGI (OVCAR-3 ovarian): > 100 µM
TGI (OVCAR-5 ovarian): > 100 µM
TGI (RPMI-8226 leukemia): > 100 µM
TGI (SW-620 colon): > 100 µM
TGI (UACC-62 melanoma): > 100 µM

COc1ccc(-c2conc2-c2ccccc2)cc1
GI50 (786-0 renal): 1.28 µM
TGI (786-0 renal): 53 µM
GI50 (ACHN renal): 1.1 µM
TGI (ACHN renal): > 100 µM
GI50 (CCRF-CEM leukemia): 0.292 µM
TGI (CCRF-CEM leukemia): > 100 µM
GI50 (NCI-H226 lung): 2.42 µM
TGI (NCI-H226 lung): > 25.6 µM
GI50 (OVCAR-5 ovarian): 0.832 µM
TGI (OVCAR-5 ovarian): > 100 µM
GI50 (RPMI-8226 leukemia): 0.453 µM
TGI (RPMI-8226 leukemia): 41.9 µM
GI50 (SW-620 colon): 0.081 µM
TGI (SW-620 colon): > 100 µM
GI50 (T-47D breast): 0.329 µM
TGI (T-47D breast): > 100 µM
GI50 (UACC-62 melanoma): 0.689 µM
TGI (UACC-62 melanoma): > 100 µM

COc1cc(-c2nn3c(=O)n(-c4ccc(Cl)cc4)c(=O)nc3s2)cc(OC)c1OC
GI50 (786-0 renal): 17.4 µM
TGI (786-0 renal): 50 µM and 41.4 µM
GI50 (ACHN renal): > 50 µM
TGI (ACHN renal): > 67.7 µM
GI50 (CCRF-CEM leukemia): > 5 µM
TGI (CCRF-CEM leukemia): > 100 µM
GI50 (NCI-H226 lung): > 50 µM
TGI (NCI-H226 lung): > 100 µM
TGI (OVCAR-3 ovarian): > 100 µM
TGI (OVCAR-5 ovarian): > 100 µM
GI50 (RPMI-8226 leukemia): > 100 µM
TGI (RPMI-8226 leukemia): > 100 µM
GI50 (SW-620 colon): > 50 µM
TGI (SW-620 colon): > 100 µM
GI50 (UACC-62 melanoma): > 100 µM
TGI (UACC-62 melanoma): > 100 µM

COc1ccc(-c2nc(/C=N/Nc3cc(C)nc4ccc(Br)cc34)c(C)o2)cc1
GI50 (786-0 renal): 1.71 µM
TGI (786-0 renal): 3.22 µM
GI50 (ACHN renal): 1.73 µM
TGI (ACHN renal): 3.11 µM
GI50 (CCRF-CEM leukemia): 0.732 µM
TGI (CCRF-CEM leukemia): 3.38 µM
GI50 (NCI-H226 lung): 2.09 µM
TGI (NCI-H226 lung): 4.64 µM
GI50 (OVCAR-3 ovarian): 1.84 µM
TGI (OVCAR-3 ovarian): 3.41 µM
GI50 (OVCAR-5 ovarian): 1.95 µM
TGI (OVCAR-5 ovarian): 3.41 µM
GI50 (SW-620 colon): 0.415 µM
TGI (SW-620 colon): 1.56 µM
GI50 (T-47D breast): 1.78 µM
TGI (T-47D breast): 3.69 µM
GI50 (UACC-62 melanoma): 1.76 µM
TGI (UACC-62 melanoma): 3.34 µM

BrC(Br)([P+](c1ccccc1)(c1ccccc1)c1ccccc1)[P+](c1ccccc1)(c1ccccc1)c1ccccc1
TGI (786-0 renal): 26.9 µM
TGI (ACHN renal): 69.3 µM
TGI (NCI-H226 lung): 73 µM
TGI (OVCAR-3 ovarian): 28.7 µM
TGI (OVCAR-5 ovarian): 81.3 µM
TGI (RPMI-8226 leukemia): 34.4 µM
TGI (SW-620 colon): 29.6 µM
TGI (UACC-62 melanoma): 29.8 µM

CC(C)(C)c1cc(C(=O)O)c(C(c2ccccc2)c2ccccc2C(=O)O)c(C(=O)O)c1 (centres undefined)
TGI (786-0 renal): > 100 µM
TGI (ACHN renal): 40 µM
TGI (CCRF-CEM leukemia): > 100 µM
TGI (NCI-H226 lung): 76.7 µM
TGI (OVCAR-3 ovarian): > 100 µM
TGI (OVCAR-5 ovarian): > 100 µM
TGI (SW-620 colon): > 100 µM
TGI (UACC-62 melanoma): > 100 µM

O=C(O)C(Cc1c[nH]c2ccccc12)N1C(=O)c2ccccc2C1=O (centres undefined)
TGI (786-0 renal): > 100 µM
TGI (ACHN renal): > 100 µM
TGI (NCI-H226 lung): > 100 µM
TGI (OVCAR-3 ovarian): > 100 µM
TGI (OVCAR-5 ovarian): > 100 µM
TGI (RPMI-8226 leukemia): > 100 µM
TGI (SW-620 colon): > 100 µM
TGI (T-47D breast): > 100 µM
TGI (UACC-62 melanoma): > 100 µM

O=C(NOC(=O)c1ccc([N+](=O)[O-])cc1)c1ccc(Cl)cc1
TGI (786-0 renal): > 100 µM
TGI (ACHN renal): > 100 µM
TGI (CCRF-CEM leukemia): > 100 µM
TGI (OVCAR-5 ovarian): > 100 µM
TGI (RPMI-8226 leukemia): > 100 µM
TGI (SW-620 colon): > 100 µM
TGI (UACC-62 melanoma): > 100 µM

COc1ccc(C2NC(=S)NC3=C2COc2ccc(F)cc23)cc1OC (centres undefined)
GI50 (786-0 renal): 28.6 µM
TGI (786-0 renal): > 100 µM
GI50 (ACHN renal): 13 µM
TGI (ACHN renal): 39.2 µM
GI50 (CCRF-CEM leukemia): 93.5 µM
TGI (CCRF-CEM leukemia): > 100 µM
GI50 (NCI-H226 lung): 16.3 µM
TGI (NCI-H226 lung): 70.4 µM
GI50 (OVCAR-3 ovarian): 11 µM
TGI (OVCAR-3 ovarian): 49.9 µM
GI50 (OVCAR-5 ovarian): 18.6 µM
TGI (OVCAR-5 ovarian): 48.1 µM
GI50 (RPMI-8226 leukemia): 13.5 µM
TGI (RPMI-8226 leukemia): > 100 µM
GI50 (SW-620 colon): 24.5 µM
TGI (SW-620 colon): > 100 µM
GI50 (UACC-62 melanoma): 14.8 µM
TGI (UACC-62 melanoma): 41.8 µM

CN1C=C(C(N)=O)C2CC(O)[C@@](NC(=O)CS(N)(=O)=O)(C(=O)O)C2C1 (some centres undefined)
TGI (786-0 renal): 16.4 µM
TGI (ACHN renal): 97.3 µM
TGI (CCRF-CEM leukemia): > 100 µM
TGI (NCI-H226 lung): 8.52 µM
TGI (OVCAR-3 ovarian): 42.6 µM
TGI (OVCAR-5 ovarian): 6.8 µM
TGI (RPMI-8226 leukemia): 58.9 µM
TGI (SW-620 colon): > 91.5 µM
TGI (UACC-62 melanoma): 7.02 µM

COC(=O)Cc1cc(=O)oc2c1C(=O)CCC2
TGI (786-0 renal): > 100 µM
TGI (ACHN renal): > 100 µM
TGI (CCRF-CEM leukemia): > 100 µM
TGI (NCI-H226 lung): > 100 µM
TGI (OVCAR-3 ovarian): > 100 µM
TGI (OVCAR-5 ovarian): > 100 µM
TGI (RPMI-8226 leukemia): > 100 µM
TGI (SW-620 colon): > 100 µM
TGI (UACC-62 melanoma): > 100 µM

O=c1c2ccccc2c(=O)c2c1sc1c(=O)c3ccc(O)cc3c(=O)c12
GI50 (786-0 renal): 1.8 µM
TGI (786-0 renal): 4.44 µM
GI50 (ACHN renal): 0.864 µM
TGI (ACHN renal): 2.38 µM
GI50 (CCRF-CEM leukemia): 2.59 µM
TGI (CCRF-CEM leukemia): 10.3 µM
GI50 (OVCAR-3 ovarian): 0.263 µM
TGI (OVCAR-3 ovarian): 0.924 µM
GI50 (OVCAR-5 ovarian): 1.74 µM
TGI (OVCAR-5 ovarian): 3.65 µM
GI50 (RPMI-8226 leukemia): 1.42 µM
TGI (RPMI-8226 leukemia): 5.25 µM
GI50 (SW-620 colon): 0.436 µM
TGI (SW-620 colon): 1.56 µM
GI50 (T-47D breast): 2.04 µM
TGI (T-47D breast): 6.3 µM
GI50 (UACC-62 melanoma): 0.174 µM
TGI (UACC-62 melanoma): 0.331 µM

CN1C(=O)CC2(C)c3cc(C=O)ccc3N(C)C12 (centres undefined)
TGI (786-0 renal): > 100 µM
TGI (ACHN renal): > 100 µM
TGI (CCRF-CEM leukemia): > 100 µM
TGI (NCI-H226 lung): > 100 µM
TGI (OVCAR-3 ovarian): > 100 µM
TGI (OVCAR-5 ovarian): > 100 µM
TGI (SW-620 colon): > 100 µM
TGI (UACC-62 melanoma): > 100 µM

COC(=O)C1=C(C(=O)OC)N(C(C)C)[C@H]2C(C(=O)OC)=C(C(=O)OC)N(C(C)C)[C@@H]12
TGI (786-0 renal): > 100 µM
TGI (ACHN renal): > 100 µM
TGI (CCRF-CEM leukemia): > 100 µM
TGI (NCI-H226 lung): > 100 µM
TGI (OVCAR-3 ovarian): > 100 µM
TGI (OVCAR-5 ovarian): > 100 µM
TGI (RPMI-8226 leukemia): > 100 µM
TGI (SW-620 colon): > 100 µM
TGI (UACC-62 melanoma): > 100 µM

O=C1Cc2ccccc2CCc2ccccc21
TGI (786-0 renal): > 100 µM
TGI (ACHN renal): > 100 µM
TGI (CCRF-CEM leukemia): > 100 µM
TGI (NCI-H226 lung): > 100 µM
TGI (OVCAR-3 ovarian): > 100 µM
TGI (OVCAR-5 ovarian): > 100 µM
TGI (RPMI-8226 leukemia): > 100 µM
TGI (SW-620 colon): > 100 µM
TGI (UACC-62 melanoma): > 100 µM

CCCC/C=C1\CCC(CN2CCCC2)C1=O (centres undefined)
TGI (786-0 renal): 3.62 µM
TGI (ACHN renal): 19.2 µM
TGI (CCRF-CEM leukemia): 25 µM
TGI (NCI-H226 lung): 31.8 µM
TGI (OVCAR-3 ovarian): 31.5 µM
TGI (OVCAR-5 ovarian): 33.4 µM
TGI (SW-620 colon): 4.9 µM
TGI (UACC-62 melanoma): 31.2 µM

C(/C=C/N1CCCC1)=C\c1nc(N2CCCC2)c2ccccc2n1
TGI (786-0 renal): 30.4 µM
TGI (ACHN renal): 30.8 µM
TGI (CCRF-CEM leukemia): 50.1 µM
TGI (NCI-H226 lung): 39.7 µM
TGI (OVCAR-3 ovarian): 29.7 µM
TGI (OVCAR-5 ovarian): 28.9 µM
TGI (RPMI-8226 leukemia): 42.3 µM
TGI (SW-620 colon): 29.8 µM
TGI (UACC-62 melanoma): 44.1 µM

CCOC(=O)c1cc(C(=O)O)c(=O)n2c1[nH]c1ccccc12
TGI (786-0 renal): > 100 µM
TGI (ACHN renal): > 100 µM
TGI (CCRF-CEM leukemia): > 100 µM
TGI (OVCAR-3 ovarian): > 100 µM
TGI (RPMI-8226 leukemia): > 100 µM
TGI (SW-620 colon): > 100 µM
TGI (UACC-62 melanoma): > 100 µM

COc1cc2c3c(c1OC)/C(=N/OS(=O)(=O)c1ccc(C)cc1)CC3N(S(=O)(=O)c1ccc(C)cc1)CC2 (centres undefined)
TGI (786-0 renal): > 100 µM
TGI (ACHN renal): > 100 µM
TGI (CCRF-CEM leukemia): > 100 µM
TGI (NCI-H226 lung): > 100 µM
TGI (OVCAR-3 ovarian): > 100 µM
TGI (OVCAR-5 ovarian): > 100 µM
TGI (RPMI-8226 leukemia): > 100 µM
TGI (SW-620 colon): > 100 µM
TGI (UACC-62 melanoma): > 100 µM

c1cc2ccc1C1NCCCN1CCN1CCCNC1c1ccc(cc1)C1NCCCN1CCN1CCCNC21 (centres undefined)
TGI (786-0 renal): > 100 µM
TGI (ACHN renal): > 100 µM
TGI (CCRF-CEM leukemia): > 100 µM
TGI (OVCAR-3 ovarian): > 100 µM
TGI (OVCAR-5 ovarian): > 100 µM
TGI (RPMI-8226 leukemia): > 100 µM
TGI (SW-620 colon): 48.5 µM
TGI (UACC-62 melanoma): > 100 µM
